Test results taken from patent US11285128B2, “Homogenous antibody drug conjugates via enzymatic methods” (CSPC Megalith Biopharmaceutical Co., Ltd., priority 2014, dated 2022).

B1: TG_SM: mTgase from S. mobaraensis, purified from Ajinomoto's Activa TI (SEQ ID NO:18) (protein)
chain: DSDDRVTPPAEPLDRMPDPYRPSYGRAETVVNNYIRKWQQVYSHRDGRKQQMTEEQREWLSYGCVGVTWVNSGQYPTNRLAFASFDEDRFKNELKNGRPRSGETRAEFEGRVAKESFDEEKGFQRAREVASVMNRALENAHDESAYLDNLKKELANGNDALRNEDARSPFYSALRNTPSFKERNGGNHDPSRMKAVIYSKHFWSGQDRSSSADKRKYGDPDAFRPAPGTGLVDMSRDRNIPRSPTSPGEGFVNFDYGWFGAQTEADADKTVWTHGNHYHAPNGSLGAMHVYESKFRNWSEGYSDFDRGAYVITFIPKSWNTAPDKVKQGWP

Legend:
SK-BR-3 cells = experiment: In vitro cell viability assay (CellTiter Blue) in SK-BR-3 cells; assay type: cell-based; settings: Trastuzumab-MMAE conjugates
Method: SK-BR-3 cells were seeded in 96 well black clear-bottom plates at 10K cells/well and cultured for 24 hours. Cells were treated for 96 hours with 2 fold serially diluted antibody-drug conjugates in triplicates. Cells viability was determined by […]™ Blue Cell Viability Assay (Promega, Madison, Wis.). Relative cell viability was determined as a percentage of untreated control. IC50 was calculated using a four parameter logistic model from XLfit.

BT474 cells = experiment: BT474 cell-based assay; settings: Trastuzumab-MMAE conjugates, Table 4
[1] = In vivo stability in blood of NCI N87 xenograft mice (sandwich ELISA, ratio ADC/mAb); settings: blood samples up to 21 days
Method: After ADC administration, blood samples of 20 μl were taken every 1-2 days up to 21 days by poking mouse tails and mixed with 120 μl of storage buffer (PBS with 10 mM EDTA and 0.1 M NH4Cl). Then total trastuzumab and ADC were analyzed by sandwich ELISA. Black NUNC® Maxisorp 96 plates were coated with Her2 protein at 100 ng/well. Samples were further diluted with PBS as needed to suit the linear detection range of 10 pg to 2 ng (for either Trastuzumab or ADC). After applying samples (fresh ADC dilutions were used as both total mAb and ADC standards) and washing, rabbit polyclonal anti-trastuzumab (for total mAb) or anti-MMAE (for total ADC) were applied as secondary antibodies while Goat anti-Rabbit IgG-HRP (Life-technologies) was used as the detection antibody. AMPLEX® Red (Cayman Chemical)/4-Iodophenol (Sigma)/H2O2 mixture was used as fluorescence substrate. Plates were read on SpectraMax GEMINI′ with 555 nm Ex and 585 nm Em.

IgG1 = IgG1 (Homo sapiens, UniProt P01857, D239E/L241M); experiment: mTgase-catalysed conjugation of IgG1 with MDC (HPLC); assay type: biochemical; settings: high enzyme concentration
Method: MDC was chosen for this experiment because it has a primary amine and its fluorescence can be easily monitored. […] To purified IgG1 (1-10 mg/ml) in Tris-buffer (pH 6.5-8.5), add MDC (Sigma-Aldrich) in DMSO to final concentrations of 1-5 mM (final DMSO 2-10%). Add purified wildtype TG_SL or its mutant to a final concentration of 0.05-1.0 mg/ml. Incubate the reaction mixtures at 37° C. Reaction was followed by HPLC using phenyl hydrophobic interaction column (PHIC, Tosoh Bioscience LLC). At the beginning of the reaction, the product was dominated by DAR1, where only one heavy chain of IgG1 was coupled with MDC. As the reaction progressed, DAR 2, where both heavy chains of IgG1 are coupled with MDC, became the major product. Toward the end of reaction (8 hours at 0.2 mg/ml of mTgase at pH 7), conjugation yield reached 80% for DAR2 with 20% of DAR 1 left, or 90% for heavy chain (HC) when the sample was reduced by 10 mM TCEP and analyzed on C4-1000A column (Vydac) (see FIG. 6). The selective conjugation of MDC to HC was visualized on SDS PAGE (FIG. 7). Other mTgases, such as TG_SM from S. mobaraensis (purified from Ajinomoto's Activa TI), was also tested.

IgG1, sequence (P01857 with tags, fused parts or gaps isoform P01857-1 D239E/L241M, other chains not shown): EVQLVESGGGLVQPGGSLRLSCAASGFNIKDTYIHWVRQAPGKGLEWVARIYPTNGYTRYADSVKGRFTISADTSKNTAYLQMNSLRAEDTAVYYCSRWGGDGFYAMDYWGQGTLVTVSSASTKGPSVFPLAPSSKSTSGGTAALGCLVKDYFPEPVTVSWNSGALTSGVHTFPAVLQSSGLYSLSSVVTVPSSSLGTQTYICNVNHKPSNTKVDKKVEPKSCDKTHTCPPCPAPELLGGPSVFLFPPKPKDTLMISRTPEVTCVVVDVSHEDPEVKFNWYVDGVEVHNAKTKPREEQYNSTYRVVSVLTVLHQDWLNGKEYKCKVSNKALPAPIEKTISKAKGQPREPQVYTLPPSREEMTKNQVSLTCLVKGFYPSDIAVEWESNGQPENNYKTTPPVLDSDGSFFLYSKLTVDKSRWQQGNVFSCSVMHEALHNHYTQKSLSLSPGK

| Molecule | IC50 (SK-BR-3 cells) [nM] | IC50 (BT474 cells) [nM] | stability in blood (ratio of ADC/mAb vs time) [1] | activity comparing to TG_SL (IgG1) |
| --- | --- | --- | --- | --- |
| PEG4 | 0.061 | 0.273 | – | – |
| PEG6 | 0.05 | 0.234 | – | – |
| PEG8 | 0.042 | 0.23 | – | – |
| PEG12 | 0.038 | 0.267 | completely stable in blood | – |
| B1 | – | – | – | about 30% |
